# Assay results reported in ChEMBL document CHEMBL1221287 (Bioorg Med Chem Lett, 2010).
# pKi: −log10 of the molar value.
# Key:
# Carbonic anhydrase 3 = Carbonic anhydrase 3 (Homo sapiens, UniProt P07451)
# Description: Inhibition of human carbonic anhydrase 3 after 15 mins by stopped flow CO2 hydration method
# Carbonic anhydrase 1 = Carbonic anhydrase 1 (Homo sapiens, UniProt P00915)
# Description: Inhibition of human carbonic anhydrase 1 after 15 mins by stopped flow CO2 hydration method
# [1] = target: Carbonic anhydrase 5A, mitochondrial (Homo sapiens, UniProt P35218)
# Description: Inhibition of human carbonic anhydrase 5a after 15 mins by stopped flow CO2 hydration method
# Carbonic anhydrase 14 = Carbonic anhydrase 14 (Homo sapiens, UniProt Q9ULX7)
# Description: Inhibition of human carbonic anhydrase 14 after 15 mins by stopped flow CO2 hydration method
# Carbonic anhydrase 12 = Carbonic anhydrase 12 (Homo sapiens, UniProt O43570)
# Description: Inhibition of human carbonic anhydrase 12 after 15 mins by stopped flow CO2 hydration method
# Carbonic anhydrase 4 = Carbonic anhydrase 4 (Homo sapiens, UniProt P22748)
# Description: Inhibition of human carbonic anhydrase 4 after 15 mins by stopped flow CO2 hydration method
# Carbonic anhydrase 15 = target: T1, Carbonic anhydrase 15 (Mus musculus, UniProt Q99N23)
# T1 sequence (Q99N23 whole entry): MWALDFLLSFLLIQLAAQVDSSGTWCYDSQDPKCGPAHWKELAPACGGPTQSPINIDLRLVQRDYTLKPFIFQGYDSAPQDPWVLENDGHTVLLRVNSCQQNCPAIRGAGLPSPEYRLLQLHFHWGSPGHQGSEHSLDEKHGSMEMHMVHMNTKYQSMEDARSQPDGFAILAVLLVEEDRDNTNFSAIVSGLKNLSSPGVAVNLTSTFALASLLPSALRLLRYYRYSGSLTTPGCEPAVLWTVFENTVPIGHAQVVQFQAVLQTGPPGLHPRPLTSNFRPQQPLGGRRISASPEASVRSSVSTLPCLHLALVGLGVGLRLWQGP
# Description: Inhibition of mouse carbonic anhydrase 15 after 15 mins by stopped flow CO2 hydration method
# Carbonic anhydrase 7 = Carbonic anhydrase 7 (Homo sapiens, UniProt P43166)
# Description: Inhibition of human carbonic anhydrase 7 after 15 mins by stopped flow CO2 hydration method
# Carbonic anhydrase 6 = Carbonic anhydrase 6 (Homo sapiens, UniProt P23280)
# Description: Inhibition of human carbonic anhydrase 6 after 15 mins by stopped flow CO2 hydration method
# [2] = target: Carbonic anhydrase 5B, mitochondrial (Homo sapiens, UniProt Q9Y2D0)
# Description: Inhibition of human carbonic anhydrase 5b after 15 mins by stopped flow CO2 hydration method
# Carbonic anhydrase 2 = Carbonic anhydrase 2 (Homo sapiens, UniProt P00918)
# Description: Inhibition of human carbonic anhydrase 2 after 15 mins by stopped flow CO2 hydration method
# Carbonic anhydrase 9 = Carbonic anhydrase 9 (Homo sapiens, UniProt Q16790)
# Description: Inhibition of human carbonic anhydrase 9 after 15 mins by stopped flow CO2 hydration method
# Carbonic anhydrase 13 = Carbonic anhydrase 13 (Homo sapiens, UniProt Q8N1Q1)
# Carbonic anhydrase 13, sequence (Q8N1Q1 whole entry): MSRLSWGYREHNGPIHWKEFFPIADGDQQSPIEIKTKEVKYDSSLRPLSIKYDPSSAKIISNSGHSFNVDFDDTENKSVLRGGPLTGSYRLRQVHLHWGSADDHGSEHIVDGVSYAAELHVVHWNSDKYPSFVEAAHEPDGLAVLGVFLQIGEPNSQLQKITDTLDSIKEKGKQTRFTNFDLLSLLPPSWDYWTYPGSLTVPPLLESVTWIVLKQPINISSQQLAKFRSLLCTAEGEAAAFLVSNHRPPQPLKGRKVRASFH
# Description: Inhibition of human carbonic anhydrase 13 after 15 mins by stopped flow CO2 hydration method
# Carbonic anhydrase 4, sequence (P22748 whole entry): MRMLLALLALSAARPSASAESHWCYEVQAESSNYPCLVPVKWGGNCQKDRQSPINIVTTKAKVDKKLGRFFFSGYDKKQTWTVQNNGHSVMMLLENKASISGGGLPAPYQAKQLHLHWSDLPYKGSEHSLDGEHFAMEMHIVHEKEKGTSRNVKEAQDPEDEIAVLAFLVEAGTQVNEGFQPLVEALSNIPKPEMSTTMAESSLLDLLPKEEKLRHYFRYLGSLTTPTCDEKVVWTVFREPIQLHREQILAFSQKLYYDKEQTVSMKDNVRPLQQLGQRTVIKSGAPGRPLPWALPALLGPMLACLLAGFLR
# Carbonic anhydrase 3, sequence (P07451 whole entry): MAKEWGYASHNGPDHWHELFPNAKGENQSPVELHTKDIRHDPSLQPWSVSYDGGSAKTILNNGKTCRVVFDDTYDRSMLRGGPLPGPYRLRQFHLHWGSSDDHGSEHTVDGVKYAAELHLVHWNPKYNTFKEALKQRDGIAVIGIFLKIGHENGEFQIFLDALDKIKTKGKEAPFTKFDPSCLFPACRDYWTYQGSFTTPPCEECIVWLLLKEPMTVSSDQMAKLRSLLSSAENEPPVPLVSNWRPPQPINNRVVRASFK
# Carbonic anhydrase 1, sequence (P00915 whole entry): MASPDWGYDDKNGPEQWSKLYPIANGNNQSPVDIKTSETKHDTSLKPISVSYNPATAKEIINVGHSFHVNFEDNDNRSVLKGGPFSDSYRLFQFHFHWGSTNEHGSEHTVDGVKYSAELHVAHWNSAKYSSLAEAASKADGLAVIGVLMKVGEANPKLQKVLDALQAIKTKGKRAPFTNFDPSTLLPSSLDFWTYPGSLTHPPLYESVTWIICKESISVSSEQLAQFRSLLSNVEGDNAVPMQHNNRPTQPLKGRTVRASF
# Carbonic anhydrase 12, sequence (O43570 whole entry): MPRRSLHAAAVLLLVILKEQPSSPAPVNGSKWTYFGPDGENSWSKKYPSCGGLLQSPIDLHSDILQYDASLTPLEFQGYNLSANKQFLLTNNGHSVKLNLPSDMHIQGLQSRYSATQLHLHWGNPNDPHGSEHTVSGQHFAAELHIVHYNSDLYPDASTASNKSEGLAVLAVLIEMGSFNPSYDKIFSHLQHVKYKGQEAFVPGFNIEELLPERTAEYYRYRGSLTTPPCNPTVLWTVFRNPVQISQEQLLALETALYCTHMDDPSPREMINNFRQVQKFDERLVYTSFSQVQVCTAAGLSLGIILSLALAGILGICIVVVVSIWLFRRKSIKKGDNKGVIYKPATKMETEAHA
# Carbonic anhydrase 5B, mitochondrial, sequence (Q9Y2D0 whole entry): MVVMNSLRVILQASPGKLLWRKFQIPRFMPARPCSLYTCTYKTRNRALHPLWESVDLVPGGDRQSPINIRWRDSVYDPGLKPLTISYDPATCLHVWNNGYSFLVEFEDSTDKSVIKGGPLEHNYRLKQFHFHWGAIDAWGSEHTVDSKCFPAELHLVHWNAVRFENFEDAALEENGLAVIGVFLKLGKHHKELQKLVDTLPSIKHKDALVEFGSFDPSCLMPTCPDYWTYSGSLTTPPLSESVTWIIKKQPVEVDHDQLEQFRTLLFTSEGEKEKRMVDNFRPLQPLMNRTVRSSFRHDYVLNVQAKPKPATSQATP
# Carbonic anhydrase 6, sequence (P23280 whole entry): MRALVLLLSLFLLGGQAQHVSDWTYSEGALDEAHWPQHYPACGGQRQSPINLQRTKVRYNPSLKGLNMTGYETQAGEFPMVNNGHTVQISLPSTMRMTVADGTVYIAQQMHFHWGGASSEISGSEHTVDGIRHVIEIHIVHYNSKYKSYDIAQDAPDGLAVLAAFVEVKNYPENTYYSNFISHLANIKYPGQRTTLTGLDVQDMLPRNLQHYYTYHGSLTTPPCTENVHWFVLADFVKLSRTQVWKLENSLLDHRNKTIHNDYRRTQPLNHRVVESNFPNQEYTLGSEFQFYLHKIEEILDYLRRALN
# Carbonic anhydrase 14, sequence (Q9ULX7 whole entry): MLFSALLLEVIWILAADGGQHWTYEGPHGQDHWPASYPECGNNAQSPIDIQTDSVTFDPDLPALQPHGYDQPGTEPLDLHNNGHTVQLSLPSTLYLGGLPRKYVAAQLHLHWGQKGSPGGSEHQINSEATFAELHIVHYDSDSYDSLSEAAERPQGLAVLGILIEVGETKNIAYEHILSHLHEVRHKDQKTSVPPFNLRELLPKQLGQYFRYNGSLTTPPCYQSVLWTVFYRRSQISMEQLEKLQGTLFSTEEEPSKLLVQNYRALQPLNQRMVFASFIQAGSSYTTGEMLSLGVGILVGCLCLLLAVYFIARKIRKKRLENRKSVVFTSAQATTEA
# Carbonic anhydrase 7, sequence (P43166 whole entry): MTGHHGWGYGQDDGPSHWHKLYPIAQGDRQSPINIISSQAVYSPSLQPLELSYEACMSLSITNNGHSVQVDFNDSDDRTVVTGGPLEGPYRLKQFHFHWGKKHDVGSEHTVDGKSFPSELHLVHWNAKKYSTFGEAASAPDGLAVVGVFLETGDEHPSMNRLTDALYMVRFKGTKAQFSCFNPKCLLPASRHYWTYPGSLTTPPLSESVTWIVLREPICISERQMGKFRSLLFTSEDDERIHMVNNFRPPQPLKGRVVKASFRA
# Carbonic anhydrase 5A, mitochondrial, sequence (P35218 whole entry): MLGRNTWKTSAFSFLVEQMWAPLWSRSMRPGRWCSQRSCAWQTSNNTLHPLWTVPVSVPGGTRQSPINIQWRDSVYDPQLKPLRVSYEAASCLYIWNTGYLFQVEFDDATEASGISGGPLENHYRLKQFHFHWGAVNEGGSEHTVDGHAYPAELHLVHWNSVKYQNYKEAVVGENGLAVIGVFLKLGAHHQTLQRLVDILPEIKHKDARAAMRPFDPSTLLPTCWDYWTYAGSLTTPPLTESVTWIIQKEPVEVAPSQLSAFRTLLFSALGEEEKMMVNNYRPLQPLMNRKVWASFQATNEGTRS
pKi (Carbonic anhydrase 3),pKi [1],pKi (Carbonic anhydrase 14),pKi (Carbonic anhydrase 12),pKi (Carbonic anhydrase 4),pKi (Carbonic anhydrase 15),pKi (Carbonic anhydrase 7),pKi (Carbonic anhydrase 6),pKi [2],pKi (Carbonic anhydrase 9),SMILES,pKi (Carbonic anhydrase 1),pKi (Carbonic anhydrase 2),pKi (Carbonic anhydrase 13)
5.04,5.32,6.08,6.02,5.35,5.03,5.36,5.09,5.33,6.09,Oc1ccc(/C=C/c2cc(O)cc(O)c2)cc1 [RESVERATROL],5.66,5.56,5.39
5.45,5.38,4.94,5.33,5.31,5.11,6.35,5.31,5.40,5.30,Oc1cc(O)c2c(c1)O[C@H](c1ccc(O)c(O)c1)[C@@H](O)C2 [CATECHIN],5.62,5.74,4.98
4.95,4.99,4.93,5.46,5.30,5.29,5.03,5.00,5.02,5.39,COc1cc(/C=C/C(=O)CC(=O)/C=C/c2ccc(O)c(OC)c2)ccc1O [CURCUMIN],–,–,5.16
–,–,–,–,–,–,–,–,–,–,Oc1ccccc1 [PHENOL],–,–,3.16

SMILES,pKi (Carbonic anhydrase 3),pKi [1],pKi (Carbonic anhydrase 14),pKi (Carbonic anhydrase 12),pKi (Carbonic anhydrase 4),pKi (Carbonic anhydrase 15),pKi (Carbonic anhydrase 7),pKi (Carbonic anhydrase 6),pKi [2],pKi (Carbonic anhydrase 9),pKi (Carbonic anhydrase 1),pKi (Carbonic anhydrase 2),pKi (Carbonic anhydrase 13)
CC(CCc1ccc(O)cc1)NCCc1ccc(O)c(O)c1 (centres undefined) [DOBUTAMINE],5.13,6.14,4.92,5.36,5.05,6.41,5.37,5.02,6.05,5.01,5.72,6.32,5.02
O=C(O)/C=C/c1ccccc1O [O-COUMARIC ACID],< 3.00,< 3.00,< 3.00,< 3.00,4.21,< 3.00,< 3.00,< 3.00,3.24,< 3.00,5.51,5.04,< 3.00
